For assay [1], the system named is serum cholesterol and cholesterol ester levels. Briefly: Oral administration to rabbits with high cholesterol diet, serum cholesterol and arterial plaques. It counts as in vivo. The conditions noted are these: oral 200 mg/kg per day for 9 weeks, compared to controls.
The next assay has as its system Fu5AH rat hepatoma cells. The experiment in a line: Inhibition of cholesterol ester accumulation in Fu5AH cells. Type of assay: cell-based. The source says:
For testing a 75 cm^2 flask with a near confluent cell growth is selected. The cells are removed from the flask surface by mild enzymatic treatment with pronase. After centrifugation and decanting the enzyme solution, the cell pellet is resuspended in an appropriate volume of media for seeding the desired number of 60 mm tissue culture dishes. Five (5) ml of the diluted cell suspension are pipetted into each dish. After seeding, the dishes are labelled with the cell type, date and flask number of origin and incubated at 37° C. in approximately 5% CO2 atmosphere in a high humidity incubator. When the cultures are confluent, the actual drug testing is begun. Test compounds are routinely solubilized in 100% ethanol. An equivalent amount of ethanol is added to control groups as well. The tissue culture dishes are randomly divided into groups. To one group, hyperlipemic rabbit serum (HRS) is added at 5% by volume (control). […] The dishes are returned to the incubator for an additional 24 hours. All operations through to the final incubation are performed using sterile technique in a laminar flow hood. After the incubation period, the dishes are microscopically observed with the Zeiss Axiomat with phase contrast optics and the conditions of the cultures are recorded; especially in regard to the size, number and configuration of cytoplasmic inclusions and to cellular morphology. The media is removed from the cultures and 0.9% sodium chloride solution is added. The cells are removed from the flasks with the aid of a rubber policeman and transferred to a conical graduated centrifuge tube. The cells are washed three times by suspending in an isotonic salt solution, centrifuging at 800× g for 10 minutes and aspirating the supernatant fluid.
An appropriate volume of isopropyl alcohol (about 1 ml/mg protein) is then added to the cell pellet and the sample sonicated with a micro probe (140×3 mm) for 10 seconds with a "LO" setting of 50 on a Bronwell Biosonik IV. After centrifugation for 15 minutes at 800× g, the clear supernatant is decanted and an aliquot taken for cholesterol analysis.
An aliquot of 0.4 ml of free reagent (Reagent A, Table 1 below) is added to a 10×75 mm disposable glass test tube to which 20 μl of the isopropyl alcoholic solution is added and mixed. After standing at room temperature for approximately 5 minutes, 0.8 ml of 0.5 N sodium hydroxide (Reagent C, Table 1) is added and mixed. The fluorescence is measured with an Aminco-Bowman spectrophotofluorometer with an excitation wavelength of 325 nm and emission wavelength of 415 nm. A 1 cm light path cuvette is used with a xenon lamp, an IP28 photomultiplier tube and 2 mm slits.
Total cholesterol: The same procedure described above for free cholesterol is followed for total cholesterol except that the total reagent (Reagent B, Table 1) is used instead of the free reagent and the samples are incubated for 20 minutes at 37° C. before the addition of the 0.5 N sodium hydroxide solution (Reagent C, Table 1).
The amount of cholesterol ester is found by subtracting the amount of free cholesterol from the total cholesterol content of the cells determined by the assay.

As to `CCCCCCCC/C=C\CCCCCCCC(=O)NC(Cc1c[nH]c2ccccc12)C(=O)OCC` (single isomer, unassigned) [Example 2a, α-[(1-oxo-9-octadecenylamino)]-1H-indole-3-propanoic acid, ethyl ester (cis isomer)], in assay [1], the arterial wall plaques result is given as “lessened formation or absence of arterial wall plaques”; the “cholesterol and cholesterol ester serum levels” value was “reduction in cholesterol and cholesterol ester serum levels”. Besides, the “Cholesterol Free” value in the assay on Fu5AH rat hepatoma cells (10 μg/ml, 5% HRS, Mean ± SEM, p < .01 vs Hyperlipemic Control 40.7 ± 0.6) is recorded as 76.8 ± 6.5 μg/mg Cell Protein. Besides, the “Cholesterol Ester” value in the assay with Fu5AH rat hepatoma cells (10 μg/ml, 5% HRS, Mean ± SEM, p < .01 vs Hyperlipemic Control 152.5 ± 2.3) was determined as 40.6 ± 1.3 μg/mg Cell Protein. In addition, the “Cholesterol Total” value with Fu5AH rat hepatoma cells (10 μg/ml, 5% HRS, Mean ± SEM, p < .01 vs Hyperlipemic Control 193.0 ± 2.9) stood at 117.4 ± 5.2 μg/mg Cell Protein. Also, the “% inh (cholesterol ester accumulation)” value with Fu5AH rat hepatoma cells (10 μg/ml, Table 5) turned out to be 73%. For the same molecule, the “inhibition of cholesterol accumulation by cells” value in the assay on Fu5AH rat hepatoma cells (Fu5AH cells) is “marked inhibition of cholesterol accumulation”. Further, the F/T in the assay on Fu5AH rat hepatoma cells (calculated from Table 5 (10 μg/ml), hyperlipemic control = 0.21) was 0.65.

These data come from patent publication US4448785A, “N-Unsaturated fatty acid amides of tryptophan ester homologues and anti-cholesteric use thereof” (Sandoz, Inc., priority 1982, dated 1984).
